Assays:
human V2 receptor = biological target: T1, human V2 receptor (Homo sapiens, UniProt P30518); assay: Cellular in vitro assay for determining vasopressin receptor activity, V2 receptor cell line (CRE-luciferase); format: cell-based; details: CHO cell line transfected with the human V2 receptor; agonist [Arg8]-vasopressin at EC50 concentration; read-out: IC50 hV2
T1 construct: expressed in transfected cells; host or cells: CHO K1 (ATCC) expressing firefly luciferase under a CRE-responsive promoter
T1 sequence (P30518 whole entry): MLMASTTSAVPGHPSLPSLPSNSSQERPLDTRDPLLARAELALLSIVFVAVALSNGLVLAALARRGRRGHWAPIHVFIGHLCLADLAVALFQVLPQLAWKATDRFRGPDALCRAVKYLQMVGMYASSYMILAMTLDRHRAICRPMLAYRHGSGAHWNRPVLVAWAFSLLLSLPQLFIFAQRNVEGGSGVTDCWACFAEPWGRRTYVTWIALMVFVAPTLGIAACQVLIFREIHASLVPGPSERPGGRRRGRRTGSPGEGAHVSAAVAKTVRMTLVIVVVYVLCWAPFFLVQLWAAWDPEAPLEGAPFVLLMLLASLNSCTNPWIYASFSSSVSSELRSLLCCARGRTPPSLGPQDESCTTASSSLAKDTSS
Procedure: (§1) B-1. Cellular In Vitro Assay for Determining Vasopressin Receptor Activity
(§2) The identification of agonists and antagonists of the V1a and V2 vasopressin receptors from humans, rats and dogs as well as the quantification of the activity of the compounds of the invention is carried out using recombinant cell lines. These cell lines originally derive from a hamster's ovary epithelial cell (Chinese Hamster Ovary, CHO K1, ATCC: American Type Culture Collection, Manassas, Va. 20108, USA). The test cell lines constitutively express the human, rat or dog V1a or V2 receptors. In case of the Gαq-coupled V1a receptors, cells are also stably transfected with a modified form of the calcium-sensitive photoproteins aequorin (human and rat V1a) or obelin (dog V1a), which, after reconstitution with the cofactor coelenterazine, emit light when there are increases in free calcium concentrations [Rizzuto R, Simpson A W, Brini M, Pozzan T, Nature 358, 325-327 (1992); Illarionov B A, Bondar V S, Illarionova V A, Vysotski E S, Gene 153 (2), 273-274 (1995)]. The resulting vasopressin receptor cells react to stimulation of the recombinantly expressed V1a receptors by intracellular release of calcium ions, which can be quantified by the resulting photoprotein luminescence. The Gs-coupled V2 receptors are stably transfected into cell lines expressing the gene for firefly luciferase under control of a CRE-responsible promoter. Activation of V2 receptors induces the activation of the CRE-responsive promoter via cAMP increase, thereby inducing the expression of firefly luciferase. The light emitted by photoproteins of V1a cell lines as well as the light emitted by firefly luciferase of V2 cell lines corresponds to the activation or inhibition of the respective vasopressin receptor. The bioluminescence of the cell lines is detected using a suitable luminometer [Milligan G, Marshall F, Rees S, Trends in Pharmacological Sciences 17, 235-237 (1996)].
Vasopressin V2 Receptor Cell Lines:
On the day before the assay, the cells are plated out in culture medium (DMEM/F12, 2% FCS, 2 mM glutamine, 10 mM HEPES) in 384-well microtiter plates and kept in a cell incubator (96% humidity, 5% v/v CO2, 37° C.). On the day of the assay, test compounds in various concentrations and the agonist [Arg^8]-vasopressin at EC50 concentration are added together to the wells, and plates are incubated for 3 hours in a cell incubator. Upon addition of the cell lysis reagent Triton™ and the substrate luciferin, luminescence of firefly luciferase is measured in a luminometer.
(§3) Table 1A below lists individual IC50 values for the compounds of the invention (including racemic mixtures as well as separated enantiomers) that were obtained from cell lines transfected with the human V1a or V2 receptor: […]

human V1a receptor = human V1a receptor (Homo sapiens, UniProt P37288); assay: Cellular in vitro assay for determining vasopressin receptor activity, V1a receptor cell line (photoprotein luminescence); format: cell-based; details: for IC50: CHO cell line transfected with the human V1a receptor, agonist [Arg8]-vasopressin at EC50 concentration, read-out: IC50 hV1a; for ratio IC50 hV2/hV1a: selectivity ratio of the cellular IC50 values
Sequence of human V1a receptor (P37288 whole entry): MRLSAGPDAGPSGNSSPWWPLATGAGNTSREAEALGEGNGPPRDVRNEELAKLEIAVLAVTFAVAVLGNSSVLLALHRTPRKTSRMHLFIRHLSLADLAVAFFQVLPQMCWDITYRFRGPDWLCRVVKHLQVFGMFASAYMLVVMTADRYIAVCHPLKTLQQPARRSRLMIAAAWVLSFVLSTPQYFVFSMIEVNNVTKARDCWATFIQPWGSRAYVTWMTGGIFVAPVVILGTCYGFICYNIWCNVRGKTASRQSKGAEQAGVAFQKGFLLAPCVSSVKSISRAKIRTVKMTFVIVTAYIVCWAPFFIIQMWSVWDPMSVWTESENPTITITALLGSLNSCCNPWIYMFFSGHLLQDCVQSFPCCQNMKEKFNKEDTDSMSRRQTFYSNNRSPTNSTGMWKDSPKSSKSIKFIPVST
Procedure: as §1, §2
Vasopressin V1a Receptor Cell Lines:
On the day before the assay, the cells are plated out in culture medium (DMEM/F12, 2% FCS, 2 mM glutamine, 10 mM HEPES, 5 μg/ml coelenterazine) in 384-well microtiter plates and kept in a cell incubator (96% humidity, 5% v/v CO2, 37° C.). On the day of the assay, test compounds in various concentrations are placed for 10 minutes in the wells of the microtiter plate before the agonist [Arg^8]-vasopressin at EC50 concentration is added. The resulting light signal is measured immediately in a luminometer.
as §3

Row | SMILES | IC50 (human V2 receptor) [nM] | IC50 (human V1a receptor) [nM] | ratio IC50 hV2/hV1a (human V1a receptor)
1 | NCC(O)CNc1nc(Cn2nc(-c3ccc(Cl)cc3)n(C[C@H](O)C(F)(F)F)c2=O)nn1-c1ccccc1Cl (mixture of isomers) [Example 11, 2-{[5-{[3-Amino-2-hydroxypropyl]amino}-1-(2-chlorophenyl)-1H-1,2,4-triazol-3-yl]methyl}-5-(4-chlorophenyl)-4-[(2S)-3,3,3-trifluoro-2-hydroxypropyl]-2,4-dihydro-3H-1,2,4-triazol-3-one] | 4.65 | 0.93 | 5.0
2 | C[C@@H](O)CNc1nc(Cn2nc(-c3ccc(Cl)cc3)n(C[C@H](O)C(F)(F)F)c2=O)nn1-c1ccccc1Cl [Example 49, 5-(4-Chlorophenyl)-2-{[1-(2-chlorophenyl)-5-{[(2R)-2-hydroxypropyl]amino}-1H-1,2,4-triazol-3-yl]methyl}-4-[(2S)-3,3,3-trifluoro-2-hydroxypropyl]-2,4-dihydro-3H-1,2,4-triazol-3-one] | 1.94 | 0.63 | 3.1
3 | O=c1n(Cc2nc(N3CCNC(C(F)(F)F)C3)n(CCC(F)(F)F)n2)nc(-c2ccc(Cl)cc2)n1C[C@H](O)C(F)(F)F (single isomer, unassigned) [Example 107] | 785 | 43.5 | 18.1
4 | O=c1n(Cc2nc(N3CCCC3)n(-c3ccccc3Cl)n2)nc(-c2ccc(Cl)cc2)n1C[C@H](O)C(F)(F)F [Example 87, 5-(4-Chlorophenyl)-2-{[1-(2-chlorophenyl)-5-(pyrrolidin-1-yl)-1H-1,2,4-triazol-3-yl]methyl}-4-[(2S)-3,3,3-trifluoro-2-hydroxypropyl]-2,4-dihydro-3H-1,2,4-triazol-3-one] | 26.8 | 2.41 | 11.1
5 | O=C1CN(c2nc(Cn3nc(-c4ccc(Cl)cc4)n(C[C@H](O)C(F)(F)F)c3=O)nn2-c2ccccc2Cl)CCN1 [Example 48, 4-[1-(2-Chlorophenyl)-3-({3-(4-chlorophenyl)-5-oxo-4-[(2S)-3,3,3-trifluoro-2-hydroxypropyl]-4,5-dihydro-1H-1,2,4-triazol-1-yl}methyl)-1H-1,2,4-triazol-5-yl]piperazin-2-one] | 10.4 | 0.64 | 16.3
6 | CC(=O)NCCNc1nc(Cn2nc(-c3ccc(Cl)cc3)n(C[C@H](O)C(F)(F)F)c2=O)nn1-c1ccccc1Cl [Example 71, N-(2-{[1-(2-Chlorophenyl)-3-({3-(4-chlorophenyl)-5-oxo-4-[(2S)-3,3,3-trifluoro-2-hydroxypropyl]-4,5-dihydro-1H-1,2,4-triazol-1-yl}methyl)-1H-1,2,4-triazol-5-yl]amino}ethyl)acetamide] | 2.4 | 0.44 | 5.5
7 | CC(C)(C)OC(=O)N1CCC(O)(CNc2nc(Cn3nc(-c4ccc(Cl)cc4)n(C[C@H](O)C(F)(F)F)c3=O)nn2-c2ccccc2Cl)CC1 [Example 21, tert-Butyl 4-({[1-(2-chlorophenyl)-3-({3-(4-chlorophenyl)-5-oxo-4-[(2S)-3,3,3-trifluoro-2-hydroxypropyl]-4,5-dihydro-1H-1,2,4-triazol-1-yl}methyl)-1H-1,2,4-triazol-5-yl]amino}methyl)-4-hydroxypiperidine-1-carboxylate] | 35.5 | 2 | 17.8
8 | O=c1n(Cc2nc(N3CCS(=O)(=O)CC3)n(CCC(F)(F)F)n2)nc(-c2ccc(Cl)cc2)n1C[C@H](O)C(F)(F)F [Example 100, 5-(4-Chlorophenyl)-2-{[5-(1,1-dioxidothiomorpholin-4-yl)-1-(3,3,3-trifluoropropyl)-1H-1,2,4-triazol-3-yl]methyl}-4-[(2S)-3,3,3-trifluoro-2-hydroxypropyl]-2,4-dihydro-3H-1,2,4-triazol-3-one] | 3800 | 330 | 11.5
9 | CC(F)(F)CNc1nc(Cn2nc(-c3ccc(Cl)cc3)n(C[C@H](O)C(F)(F)F)c2=O)nn1-c1ccccc1Cl [Example 23, 5-(4-Chlorophenyl)-2-({1-(2-chlorophenyl)-5-[(2,2-difluoropropyl)amino]-1H-1,2,4-triazol-3-yl}methyl)-4-[(2S)-3,3,3-trifluoro-2-hydroxypropyl]-2,4-dihydro-3H-1,2,4-triazol-3-one] | 1.2 | 1.25 | 1.0
10 | O=C1CCC(Nc2nc(Cn3nc(-c4ccc(Cl)cc4)n(C[C@H](O)C(F)(F)F)c3=O)nn2-c2ccccc2Cl)CN1 (single isomer, unassigned) [Example 61] | 10.1 | 1.35 | 7.4
11 | O=c1n(Cc2nc(N3CC4(C3)CS(=O)(=O)C4)n(-c3ccccc3Cl)n2)nc(-c2ccc(Cl)cc2)n1C[C@H](O)C(F)(F)F [Example 47, 5-(4-Chlorophenyl)-2-{[1-(2-chlorophenyl)-5-(2,2-dioxido-2-thia-6-azaspiro[3.3]hept-6-yl)-1H-1,2,4-triazol-3-yl]methyl}-4-[(2S)-3,3,3-trifluoro-2-hydroxypropyl]-2,4-dihydro-3H-1,2,4-triazol-3-one] | 5.63 | 0.96 | 5.8
12 | CC1(CNc2nc(Cn3nc(-c4ccc(Cl)cc4)n(C[C@H](O)C(F)(F)F)c3=O)nn2-c2ccccc2Cl)COC1 [Example 78, 5-(4-Chlorophenyl)-2-{[1-(2-chlorophenyl)-5-{[(3-methyloxetan-3-yl)methyl]amino}-1H-1,2,4-triazol-3-yl]methyl}-4-[(2S)-3,3,3-trifluoro-2-hydroxypropyl]-2,4-dihydro-3H-1,2,4-triazol-3-one] | 1.63 | 0.79 | 2.1

Continued by falling IC50 (human V2 receptor), values first:

Row | IC50 (human V2 receptor) [nM] | IC50 (human V1a receptor) [nM] | ratio IC50 hV2/hV1a (human V1a receptor) | SMILES
13 | 18.2 | 0.63 | 29.2 | NC(=O)[C@H]1CC(F)(F)CN1c1nc(Cn2nc(-c3ccc(Cl)cc3)n(C[C@H](O)C(F)(F)F)c2=O)nn1-c1ccccc1Cl [Example 10, 1-[1-(2-Chlorophenyl)-3-({3-(4-chlorophenyl)-5-oxo-4-[(2S)-3,3,3-trifluoro-2-hydroxypropyl]-4,5-dihydro-1H-1,2,4-triazol-1-yl}methyl)-1H-1,2,4-triazol-5-yl]-4,4-difluoro-D-prolinamide]
14 | 6.9 | 0.37 | 18.9 | O=c1n(Cc2nc(N3CCNC(C(F)(F)F)C3)n(-c3ccccc3Cl)n2)nc(-c2ccc(Cl)cc2)n1C[C@H](O)C(F)(F)F (mixture of isomers) [Example 66]
15 | 4.77 | 2.3 | 2.1 | COC(C)(C)CNc1nc(Cn2nc(-c3ccc(Cl)cc3)n(C[C@H](O)C(F)(F)F)c2=O)nn1-c1ccccc1Cl [Example 4, 5-(4-Chlorophenyl)-2-({1-(2-chlorophenyl)-5-[(2-methoxy-2-methylpropyl)amino]-1H-1,2,4-triazol-3-yl}methyl)-4-[(2S)-3,3,3-trifluoro-2-hydroxypropyl]-2,4-dihydro-3H-1,2,4-triazol-3-one]
16 | 3.6 | 0.48 | 7.5 | NC(=O)C1CN(c2nc(Cn3nc(-c4ccc(Cl)cc4)n(C[C@H](O)C(F)(F)F)c3=O)nn2-c2ccccc2Cl)C1 [Example 74, 1-[1-(2-Chlorophenyl)-3-({3-(4-chlorophenyl)-5-oxo-4-[(2S)-3,3,3-trifluoro-2-hydroxypropyl]-4,5-dihydro-1H-1,2,4-triazol-1-yl}methyl)-1H-1,2,4-triazol-5-yl]azetidine-3-carboxamide]
17 | 2.15 | 0.62 | 3.5 | CC(C)(CF)CNc1nc(Cn2nc(-c3ccc(Cl)cc3)n(C[C@H](O)C(F)(F)F)c2=O)nn1-c1ccccc1Cl [Example 3, 5-(4-Chlorophenyl)-2-({1-(2-chlorophenyl)-5-[(3-fluoro-2,2-dimethylpropyl)amino]-1H-1,2,4-triazol-3-yl}methyl)-4-[(2S)-3,3,3-trifluoro-2-hydroxypropyl]-2,4-dihydro-3H-1,2,4-triazol-3-one]

— patent publication US11331314B2, “Amine substituted triazole derivatives and uses thereof” (Bayer Pharma Aktiengesellschaft, priority 2017, dated 2022)
